Data from US20260062422A1 (Halda Therapeutics OpCo, Inc., priority 2022, published 2026).

Columns and labels:
VCaP cells = assay: Cellular growth inhibition assay for VCaP cells, CellTiter-Glo; type: cell-based, human; details: 72 hours treatment, CellTiter-Glo 2.0
Outline: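 GI50 values come from four-parameter curve fits of luminescence data normalized to a zero baseline. Compound, in medium with 0.5% DMSO, was added one day after plating and left for 72 h before CellTiter-Glo 2.0 addition.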

T47D cells = assay: Cellular growth inhibition assay for T47D cells, CellTiter-Glo; type: cell-based, human; details: 72 hours treatment, CellTiter-Glo 2.0 cell viability
Outline: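 Growth inhibition as GI50, fitted with four parameters to CellTiter-Glo luminescence after 72 h of compound exposure (0.5% DMSO). Cells were T47D, grown in insulin-supplemented (0.2 units/mL) DMEM with 10% FBS and treated one day post-seeding.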

[1] = tested on: T-Rex 293 cell line SC3 cells lacking increased expression of androgen receptor protein; assay: Cellular growth inhibition, T-Rex 293 SC3 cells without doxycycline, CellTiter-Glo; type: cell-based; details: T-Rex 293 SC3 cells not exposed to doxycycline, CellTiter-Glo 2.0
Outline: (§1)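 SC3 is a T-Rex 293 clone stably transfected with wild-type androgen receptor in pcDNA4/TO, inducible by 10 ng/mL doxycycline. Cells were grown in phenol red-free DMEM with 10% charcoal-dextran FBS, with or without doxycycline, dosed 24 h after seeding (0.5% DMSO) for 72 h. Viability was read by CellTiter-Glo 2.0 luminescence and GI50 obtained from four-parameter fits.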

[2] = tested on: T-Rex 293 cell line SC3 cells having increased expression of androgen receptor protein due to exposure to doxycycline; assay: Cellular growth inhibition, T-Rex 293 SC3 cells with doxycycline (androgen receptor induced), CellTiter-Glo; type: cell-based; details: T-Rex 293 SC3 cells with 10 ng/mL doxycycline (increased androgen receptor expression)
Outline: as §1

Row | GI50 (VCaP cells; Homo sapiens, VCaP, 72 h) | GI50 (T47D cells; Homo sapiens, T47D, 72 h) | GI50 (VCaP cells) | GI50 (T47D cells) | SMILES | GI50 ([1]; 72 h) | GI50 ([2]; 72 h) | GI50 ([1]; 72 hours) | GI50 ([2]; 72 hours)
1 | < 0.5 µM | 0.5 to 1.5 µM |  |  | Cc1sc2c(c1C)C(c1ccc(CCCN(C)C(=O)c3ncc(C(=O)N[C@H]4C(C)(C)[C@H](Oc5ccc(C#N)c(Cl)c5)C4(C)C)cn3)cc1)=N[C@@H](Cc1ncco1)c1nnc(C)n1-2 [Compound I-362] | > 3 µM | < 0.5 µM |  | 
2 | < 0.5 µM | 0.5 to 1.5 µM |  |  | Cc1sc2c(c1C)C(c1ccc(CC(=O)N3CCN(c4ncc(C(=O)N[C@H]5C(C)(C)[C@H](Oc6ccc(C#N)c(Cl)c6)C5(C)C)cn4)CC3)cc1)=N[C@@H](Cc1ncco1)c1nnc(C)n1-2 [Compound I-363] | 0.5 to 1.5 µM | < 0.5 µM |  | 
3 | > 3 µM | > 3 µM |  |  | Cc1sc2c(c1C)C(c1ccc(C(=O)N3CCC[C@@H](C(=O)c4ncc(C(=O)N[C@H]5C(C)(C)[C@H](Oc6ccc(C#N)c(Cl)c6)C5(C)C)cn4)C3)cc1)=N[C@H](Cc1ncco1)c1nnc(C)n1-2 [Compound I-364] | > 3 µM | < 0.5 µM |  | 
4 | < 0.5 µM | < 0.5 µM |  |  | Cc1sc2c(c1C)C(c1ccc(CCCC3CC4(C3)CN(c3ncc(C(=O)N[C@H]5C(C)(C)[C@H](Oc6ccc(C#N)c(Cl)c6)C5(C)C)cn3)C4)cc1)=N[C@@H](C)c1nnc(C)n1-2 [Compound I-365] | > 3 µM | < 0.5 µM |  | 
5 | < 0.5 µM | > 3 µM |  |  | Cc1sc2c(c1C)C(c1ccc(CCC[C@H]3CCCN(c4ncc(C(=O)N[C@H]5C(C)(C)[C@H](Oc6ccc(C#N)c(Cl)c6)C5(C)C)cn4)C3)cc1)=N[C@@H](C)c1nnc(C)n1-2 [Compound I-366] | > 3 µM | < 0.5 µM |  | 
6 | < 0.5 µM | 0.5 to 1.5 µM |  |  | Cc1sc2c(c1C)C(c1ccc(CCO[C@@H]3CCCN(c4ncc(C(=O)N[C@H]5C(C)(C)[C@H](Oc6ccc(C#N)c(Cl)c6)C5(C)C)cn4)C3)cc1)=N[C@@H](C)c1nnc(C)n1-2 [Compound I-367] | > 3 µM | < 0.5 µM |  | 
7 | < 0.5 µM | < 0.5 µM |  |  | Cc1sc2c(c1C)C(c1ccc(CC[C@H]3C[C@@]4(CCCN(c5ncc(C(=O)N[C@H]6C(C)(C)[C@H](Oc7ccc(C#N)c(Cl)c7)C6(C)C)cn5)C4)C3)cc1)=N[C@@H](C)c1nnc(C)n1-2 [Compound I-368] | > 3 µM | < 0.5 µM |  | 
8 | < 0.5 µM | > 3 µM |  |  | Cc1sc2c(c1C)C(c1ccc(CC[C@H]3C[C@]4(CCCN(c5ncc(C(=O)N[C@H]6C(C)(C)[C@H](Oc7ccc(C#N)c(Cl)c7)C6(C)C)cn5)C4)C3)cc1)=N[C@@H](C)c1nnc(C)n1-2 [Compound I-369] | > 3 µM | < 0.5 µM |  | 
9 | < 0.5 µM | 0.5 to 1.5 µM |  |  | Cc1sc2c(c1C)C(c1ccc(CC(=O)N3CCC(c4ncc(C(=O)N[C@H]5C(C)(C)[C@H](Oc6ccc(C#N)c(Cl)c6)C5(C)C)cn4)CC3)cc1)=N[C@H](Cc1ncco1)c1nnc(C)n1-2 [Compound I-370] | > 3 µM | < 0.5 µM |  | 
10 | < 0.5 µM | 0.5 to 1.5 µM |  |  | Cc1sc2c(c1C)C(c1ccc(CN(C)C(=O)[C@@H]3CC[C@H](c4ncc(C(=O)N[C@H]5C(C)(C)[C@H](Oc6ccc(C#N)c(Cl)c6)C5(C)C)cn4)C3)cc1)=N[C@@H](Cc1ncco1)c1nnc(C)n1-2 [Compound I-371] | > 3 µM | < 0.5 µM |  | 
11 | < 0.5 µM | 0.5 to 1.5 µM |  |  | Cc1sc2c(c1C)C(c1ccc(CN(C)C(=O)[C@@H]3CC[C@@H](c4ncc(C(=O)N[C@H]5C(C)(C)[C@H](Oc6ccc(C#N)c(Cl)c6)C5(C)C)cn4)C3)cc1)=N[C@@H](Cc1ncco1)c1nnc(C)n1-2 [Compound I-372] | > 3 µM | < 0.5 µM |  | 
12 | > 3 µM | > 3 µM |  |  | Cc1sc2c(c1C)C(c1ccc(N(C)CC(=O)NCc3ncc(C(=O)N[C@H]4C(C)(C)[C@H](Oc5ccc(C#N)c(Cl)c5)C4(C)C)cn3)cc1)=N[C@@H](Cc1ncco1)c1nnc(C)n1-2 [Compound I-373] | > 3 µM | > 3 µM |  | 
13 | < 0.5 µM | 0.5 to 1.5 µM |  |  | Cc1sc2c(c1C)C(c1ccc(N(C)CC(=O)NCc3ncc(C(=O)N[C@H]4C(C)(C)[C@H](Oc5ccc(C#N)c(Cl)c5)C4(C)C)cn3)cc1)=N[C@H](Cc1ncco1)c1nnc(C)n1-2 [Compound I-374] | > 3 µM | > 3 µM |  | 
14 | < 0.5 µM | < 0.5 µM |  |  | Cc1sc2c(c1C)C(c1ccc(CCCOC3CCN(c4ncc(C(=O)N[C@H]5C(C)(C)[C@H](Oc6ccc(C#N)c(Cl)c6)C5(C)C)cn4)CC3)cc1)=C[C@H](Cc1ccncn1)c1nnc(C)n1-2 [Compound I-375] | < 0.5 µM | < 0.5 µM |  | 
15 |  |  | < 0.5 µM | < 0.5 µM | Cc1sc2c(c1C)C(c1ccc(CCCOC3CCN(c4ncc(C(=O)N[C@H]5C(C)(C)[C@H](Oc6ccc(C#N)c(Cl)c6)C5(C)C)cn4)CC3)cc1)=C[C@H](Cc1ccncn1)c1nnc(C)n1-2 [Compound I-376] |  |  | < 0.5 µM | < 0.5 µM
16 | > 3 µM | > 3 µM |  |  | Cc1sc2c(c1C)C(c1ccc(C3(N(C)CC4CCN(c5ncc(C(=O)N[C@H]6C(C)(C)[C@H](Oc7ccc(C#N)c(Cl)c7)C6(C)C)cn5)CC4)COC3)cc1)=N[C@@H](C)c1nnc(C)n1-2 [Compound I-377] | > 3 µM | > 3 µM |  | 
17 | < 0.5 µM | > 3 µM |  |  | Cc1sc2c(c1C)C(c1ccc(C#C[C@H]3C[C@@]4(CCCN(c5ncc(C(=O)N[C@H]6C(C)(C)[C@H](Oc7ccc(C#N)c(Cl)c7)C6(C)C)cn5)C4)C3)cc1)=N[C@@H](C)c1nnc(C)n1-2 [Compound I-378] | > 3 µM | < 0.5 µM |  | 
18 |  |  | < 0.5 µM | > 3 µM | Cc1sc2c(c1C)C(c1ccc(C#C[C@H]3C[C@@]4(CCCN(c5ncc(C(=O)N[C@H]6C(C)(C)[C@H](Oc7ccc(C#N)c(Cl)c7)C6(C)C)cn5)C4)C3)cc1)=N[C@@H](C)c1nnc(C)n1-2 [Compound I-379] |  |  | > 3 µM | < 0.5 µM
19 | < 0.5 µM | > 3 µM |  |  | Cc1sc2c(c1C)C(c1ccc(CC3CC4(CCCN(c5ncc(C(=O)N[C@H]6C(C)(C)[C@H](Oc7ccc(C#N)c(Cl)c7)C6(C)C)cn5)C4)C3)cc1)=N[C@@H](C)c1nnc(C)n1-2 [Compound I-380] | > 3 µM | < 0.5 µM |  | 
20 | > 3 µM | > 3 µM |  |  | Cc1sc2c(c1C)C(c1ccc(C(=O)N3CCC(C(=O)c4ncc(C(=O)N[C@H]5C(C)(C)[C@H](Oc6ccc(C#N)c(Cl)c6)C5(C)C)cn4)CC3)cc1)=N[C@@H](Cc1ncco1)c1nnc(C)n1-2 [Compound I-381] | > 3 µM |  |  | > 3 µM
21 |  |  | > 3 µM | > 3 µM | Cc1sc2c(c1C)C(c1ccc(C(=O)N3CCC(C(=O)c4ncc(C(=O)N[C@H]5C(C)(C)[C@H](Oc6ccc(C#N)c(Cl)c6)C5(C)C)cn4)CC3)cc1)=N[C@@H](Cc1ncco1)c1nnc(C)n1-2 [Compound I-382] |  |  | > 3 µM | < 0.5 µM
22 | > 3 µM | > 3 µM |  |  | Cc1sc2c(c1C)C(c1ccc([C@@H]3CCN(C(=O)[C@@H]4CCCN(c5ncc(C(=O)N[C@H]6C(C)(C)[C@H](Oc7ccc(C#N)c(Cl)c7)C6(C)C)cn5)C4)C3)cc1)=N[C@@H](Cc1ncco1)c1nnc(C)n1-2 [Compound I-383] | > 3 µM | > 3 µM |  | 
23 | < 0.5 µM | < 0.5 µM |  |  | Cc1sc2c(c1C)C(c1ccc([C@H]3CCN(C(=O)[C@@H]4CCCN(c5ncc(C(=O)N[C@H]6C(C)(C)[C@H](Oc7ccc(C#N)c(Cl)c7)C6(C)C)cn5)C4)C3)cc1)=N[C@@H](Cc1ncco1)c1nnc(C)n1-2 [Compound I-384] | < 0.5 µM | < 0.5 µM |  | 
24 | 1.5 to 3 µM | > 3 µM |  |  | Cc1sc2c(c1C)C(c1ccc(CN3CC(=O)N4CC(c5ncc(C(=O)N[C@H]6C(C)(C)[C@H](Oc7ccc(C#N)c(Cl)c7)C6(C)C)cn5)C[C@H]4C3=O)cc1)=N[C@@H](Cc1ncco1)c1nnc(C)n1-2 (stereo partly drawn) [Compound I-385] | > 3 µM | > 3 µM |  | 
25 | > 3 µM | 0.5 to 1.5 µM |  |  | Cc1sc2c(c1C)C(c1ccc([C@@H]3CCN(C(=O)[C@H]4CCCN(c5ncc(C(=O)N[C@H]6C(C)(C)[C@H](Oc7ccc(C#N)c(Cl)c7)C6(C)C)cn5)C4)C3)cc1)=N[C@@H](Cc1ncco1)c1nnc(C)n1-2 [Compound I-386] | > 3 µM | > 3 µM |  | 
26 | < 0.5 µM | < 0.5 µM |  |  | Cc1sc2c(c1C)C(c1ccc([C@H]3CCN(C(=O)[C@H]4CCCN(c5ncc(C(=O)N[C@H]6C(C)(C)[C@H](Oc7ccc(C#N)c(Cl)c7)C6(C)C)cn5)C4)C3)cc1)=N[C@@H](Cc1ncco1)c1nnc(C)n1-2 [Compound I-387] | 0.5 to 1.5 µM | < 0.5 µM |  | 
27 | < 0.5 µM | < 0.5 µM |  |  | Cc1sc2c(c1C)C(c1ccc(N3CC4(C3)CC3(CCN(c5ncc(C(=O)N[C@H]6C(C)(C)[C@H](Oc7ccc(C#N)c(Cl)c7)C6(C)C)cn5)CC3)C4)cc1)=N[C@@H](Cc1ncco1)c1nnc(C)n1-2 [Compound I-388] | > 3 µM | < 0.5 µM |  | 
